Reference: US20040147459A1, “Method and composition for maintaining urinary tract health in the face of infections” (priority 2002, published 2004)

Assays:
E. coli = conditions: cited from earlier work
[1] = system: E. coli in the urinary tract; assay: doctor-run trials of mannose dosages in urinary tract infections; type: in vivo; conditions: 2 g three times a day for acute infections; maintenance 1 g one to two times per day
Description: Because it is difficult for many people to remember a medication that must be taken this often, it is herein disclosed to change this model, as disclosed in the table in FIG. 2. For acute infections, the method is to give a 2-gram (1 teaspoon) dose of mannose three times a day with meals. The maintenance dosage is one-half teaspoon (1 gram) one to two times per day. Children's dosages are half of the adult dosage. For women who experience UTIs after sexual relations, one teaspoon is used an hour prior to intimate relations and an additional one teaspoon immediately following. This regimen provides a quantity of mannose sufficient to remove a majority of E. coli in the urinary tract, while improving the ease of use and compliance.

Q: Which results are given for O=C[C@@H](O)[C@@H](O)[C@H](O)[C@H](O)CO [D-mannose]?
A: effectiveness in binding to E. coli and inhibiting its attachment, relative to fructose (E. coli; compared with fructose): ten times more effectively; effectiveness of the dosages in doctor-run trials [1]: effective

Q: With O=C(CO)[C@@H](O)[C@H](O)[C@H](O)CO [fructose, reference compound] as the compound, how does the “binding to E. coli” value (E. coli; fructose contained in cranberry juice) read?
A: can also bind to E. coli
